Patent US9725442B2, “Heterocyclic derivative having PGD2 receptor antagonist activity” (Shionogi & Co., Ltd., priority 2011, dated 2017)
Like-named read-outs stand apart in the source and are kept apart here.

Legend:
[1] = molecular target: CRTH2 (Homo sapiens (Human), UniProt Q9Y5Y4); experiment: CRTH2 receptor binding inhibitory activity ([3H]-PGD2 displacement, membranes of CRTH2-expressing K562 cell); conditions: [3H]-PGD2 displacement, membrane of CRTH2-expressing K562 cell, read-out: Ki
Procedure, shortened: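 Incubation ran 60 min at room temperature using 20 μg/well membrane from CRTH2-expressing K562 cells in pH 7.4 Tris/HCl (50 mM) with 10 mM MgCl2.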

[2] = molecular target: Human DP1 receptor (Homo sapiens (Human), UniProt Q13258); experiment: Human DP1 inhibitory activity in DP1-expressing cell (PGD2-induced cAMP); assay type: cell-based; conditions: category of cAMP IC50, human DP1 receptor expressing Jurkut cell
Chain of Human DP1 receptor (Q13258 whole entry): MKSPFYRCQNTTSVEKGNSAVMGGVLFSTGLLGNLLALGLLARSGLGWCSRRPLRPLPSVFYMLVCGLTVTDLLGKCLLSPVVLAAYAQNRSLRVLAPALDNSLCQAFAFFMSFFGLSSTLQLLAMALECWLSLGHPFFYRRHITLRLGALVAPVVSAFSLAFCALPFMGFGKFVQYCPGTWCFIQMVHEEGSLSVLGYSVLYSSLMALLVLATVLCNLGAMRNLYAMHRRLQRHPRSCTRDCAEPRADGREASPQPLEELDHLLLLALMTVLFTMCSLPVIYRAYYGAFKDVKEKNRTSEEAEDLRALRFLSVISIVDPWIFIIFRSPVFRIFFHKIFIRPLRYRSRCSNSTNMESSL
Protocol: Compounds were categorized as AA (cAMP is less than 100 nM) and A (cAMP is more than 100 nM and less than 5000 nM) as shown in Table 99 and 100.

[3] = CRTH2 receptor binding, categorized AAAA/AAA

Chain of CRTH2 (Q9Y5Y4 whole entry): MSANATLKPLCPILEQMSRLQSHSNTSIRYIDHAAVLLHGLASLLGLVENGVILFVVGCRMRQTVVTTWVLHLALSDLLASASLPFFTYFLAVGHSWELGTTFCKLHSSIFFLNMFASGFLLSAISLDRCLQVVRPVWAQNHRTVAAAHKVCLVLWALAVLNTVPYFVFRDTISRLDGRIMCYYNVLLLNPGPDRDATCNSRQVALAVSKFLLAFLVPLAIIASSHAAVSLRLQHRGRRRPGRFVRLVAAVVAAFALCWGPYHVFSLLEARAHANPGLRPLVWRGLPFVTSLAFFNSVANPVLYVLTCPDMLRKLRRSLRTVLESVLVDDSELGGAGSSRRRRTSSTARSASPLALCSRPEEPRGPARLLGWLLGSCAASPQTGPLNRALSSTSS

Structure (SMILES)	Ki [1, 3] [nM]	IC50 [2] [nM]	Ki [1] [nM]
CCCCOc1ccc(S(=O)(=O)N2C[C@@H](C)[C@@H](n3nc(CC(=O)O)c4ccccc43)C2)cc1 [Compound I-151]	< 100	< 100	–
CCOc1ccc(S(=O)(=O)N2C[C@@H](C)[C@@H](n3nc(CC(=O)O)c4ccc(Cl)cc43)C2)cc1 [Compound I-137]	< 100	< 100	–
CC(C)Oc1ccc(S(=O)(=O)N2C[C@H](n3nc(CC(=O)O)c4ccc(F)cc43)C[C@@H]2c2ccccc2)cc1 [Compound I-360]	< 100	< 100	30
CCOc1ccc(S(=O)(=O)N2C[C@@H](C)[C@@H](n3nc(Cc4noc(=O)[nH]4)c4ccccc43)C2)cc1 [Compound I-296]	100 to 5000	100 to 5000	–
CC[C@H]1C[C@@H](n2nc(CC(=O)O)c3ccc(F)cc32)CN1S(=O)(=O)c1ccc(OC(C)C)cc1 [Compound I-103]	< 100	< 100	–
Cc1cccn(C[C@H]2C[C@@H](n3nc(CC(=O)O)c4ccc(F)cc43)CN2S(=O)(=O)c2ccc(OC(C)C)cc2)c1=O [Compound I-23]	< 100	100 to 5000	–
CC(C)Oc1ccc(S(=O)(=O)N2C[C@H](n3nc(CC(=O)O)c4ccccc43)C[C@@H]2Cc2ccccc2)cc1 [Compound I-349]	100 to 5000	< 100	–
CC(C)Oc1ccc(S(=O)(=O)N2C[C@H](n3nc(CC(=O)O)c4ccccc43)[C@@](C)(O)C2)cc1 [Compound I-86]	< 100	100 to 5000	–
CCOc1ccc(S(=O)(=O)N2C[C@@H](C)[C@@H](n3nc(CC(=O)O)c4ccccc43)C2)c(OC)c1 [Compound I-261]	100 to 5000	100 to 5000	–
CC(C)Oc1ccc(S(=O)(=O)N2C[C@H](n3nc(CC(=O)O)c4ccc(F)cc43)CC2(C)C)cc1 [Compound I-24]	< 100	100 to 5000	–
CC(C)Oc1ccc(S(=O)(=O)N2CC[C@H](n3nc(CC(=O)O)c4ccc(F)cc43)C[C@H]2CO)cc1 [Compound I-72]	100 to 5000	100 to 5000	–
C[C@@H]1CN(S(=O)(=O)c2ccc(OCCOc3ccccc3)cc2)C[C@@H]1n1nc(CC(=O)O)c2ccccc21 [Compound I-192]	< 100	100 to 5000	–
C[C@@H]1CN(S(=O)(=O)c2ccc(OCCOC(C)(C)C)cc2)C[C@@H]1n1nc(CC(=O)O)c2ccccc21 [Compound I-193]	100 to 5000	100 to 5000	–
C[C@H]1CN(S(=O)(=O)c2ccc(OC(F)F)cc2)C[C@@H]1n1nc(CC(=O)O)c2ccccc21 [Compound I-194]	< 100	100 to 5000	–
CC(C)Oc1ccc(S(=O)(=O)N2CC[C@H](n3nc(CC(=O)O)c4ccc(F)cc43)C[C@H]2C)cc1 [Compound I-78]	100 to 5000	100 to 5000	–
COc1ccc2c(CC(=O)O)nn([C@H]3CN(S(=O)(=O)c4ccc(OC(C)C)cc4)C[C@H]3C)c2c1 [Compound I-204]	< 100	< 100	–
CCOc1ccc(S(=O)(=O)N2C[C@@H](C)[C@@H](n3cc(CC(=O)O)c4ccc(C)cc43)C2)cn1 [Compound I-272]	< 100	< 100	–
COc1ccc(S(=O)(=O)N2C[C@@H](C)[C@@H](n3nc(CC(=O)O)c4ccc(C)cc43)C2)s1 [Compound I-180]	< 100	100 to 5000	–
CC(C)Oc1ccc(S(=O)(=O)N2C[C@H](n3nc(CC(=O)O)c4ccc(F)cc43)C[C@@H]2c2ccccc2F)cc1 [Compound I-302]	100 to 5000	100 to 5000	–
Cc1ccc2c(CC(=O)O)nn([C@H]3CN(S(=O)(=O)c4ccc(OC(F)F)cc4)C[C@H]3C)c2c1 [Compound I-110]	< 100	< 100	–

Structure (SMILES)	Ki [1, 3] [nM]	IC50 [2] [nM]	Ki [1] [nM]
CC(C)Oc1ccc(S(=O)(=O)N2CC(=O)C(n3nc(CC(=O)O)c4ccc(F)cc43)C2)cc1 (stereo not drawn) [Compound I-27]	< 100	100 to 5000	–
CC(C)Oc1ccc(S(=O)(=O)N2C[C@@H](C)[C@@H](n3nc(CC(=O)O)c4ccc(F)cc43)C2)c(C#N)c1 [Compound I-58]	< 100	< 100	–
CCOc1ccc(S(=O)(=O)N2C[C@@H](C)[C@@H](n3nc(CC(=O)O)c4ccc(N5CCOCC5)cc43)C2)cc1 [Compound I-219]	100 to 5000	100 to 5000	230
COc1ccc(S(=O)(=O)N2C[C@@H](C)[C@@H](n3nc(CC(=O)O)c4ccc(C(F)(F)F)cc43)C2)cc1 [Compound I-128]	< 100	< 100	–
CCOc1ccc(S(=O)(=O)N2C[C@@H](C)[C@@H](n3nc(CC(=O)O)c4cc(F)ccc43)C2)cc1 [Compound I-252]	< 100	< 100	–
CCOc1ccc(S(=O)(=O)N2C[C@@H](C)[C@@H](n3nc(CC(=O)O)c4ccccc43)C2)c(CF)c1 [Compound I-258]	< 100	< 100	–
CCOc1ccc(S(=O)(=O)N2C[C@H](n3nc(CC(=O)O)c4ccccc43)C(C)(C)C2)cc1 [Compound I-356]	< 100	100 to 5000	–
C=C[C@H]1C[C@@H](n2nc(CC(=O)O)c3ccc(F)cc32)CN1S(=O)(=O)c1ccc(OC(C)C)cc1 [Compound I-102]	< 100	< 100	–
COC[C@@H]1C[C@@H](n2nc(CC(=O)O)c3ccc(F)cc32)CN1S(=O)(=O)c1ccc(OC(C)C)cc1 [Compound I-16]	< 100	100 to 5000	–
C[C@@H]1CN(S(=O)(=O)c2ccc(OC(F)F)cc2)C[C@@H]1n1nc(CC(=O)O)c2cc(F)ccc21 [Compound I-251]	< 100	< 100	–
CCOc1ccc(S(=O)(=O)N2C[C@@H](C)[C@@H](n3nc(CC(=O)O)c4ccc(F)cc43)C2)c(F)c1 [Compound I-147]	< 100	< 100	–
CC(C)Oc1ccc(S(=O)(=O)N2C[C@@H](C)[C@@H](n3nc(CC(=O)NS(C)(=O)=O)c4ccc(F)cc43)C2)cc1 [Compound I-138]	< 100	100 to 5000	65
Cc1ccc2c(CC(=O)O)nn([C@@H]3C[C@H](C)N(S(=O)(=O)c4ccc(OC(C)C)cc4)C3)c2c1 [Compound I-94]	< 100	< 100	–
CCOc1ccc(S(=O)(=O)N2C[C@@H](C)[C@@H](n3nc(CC(=O)O)c4ccc(C5=CCCCC5)cc43)C2)cn1 [Compound I-221]	< 100	< 100	–
C[C@H]1CN(S(=O)(=O)c2ccc(OC(F)F)cc2)C[C@H]1n1nc(CC(=O)O)c2ccc(F)cc21 [Compound I-136]	100 to 5000	100 to 5000	–
C=C1CN(S(=O)(=O)c2ccc(OC(C)C)cc2)CC1n1nc(CC(=O)O)c2ccc(F)cc21 (stereo not drawn) [Compound I-43]	< 100	100 to 5000	–
CCOc1ccc(S(=O)(=O)N2C[C@@H](C)[C@@H](n3nc(CC(=O)O)c4ccccc43)C2)c(CCCNC(C)=O)c1 [Compound I-260]	< 100	100 to 5000	21
CCc1ccc(S(=O)(=O)N2C[C@@H](C)[C@@H](n3nc(CC(=O)O)c4ccc(F)cc43)C2)cc1 [Compound I-118]	< 100	< 100	–
C[C@@H]1CN(S(=O)(=O)c2ccc(C3CC3)cc2Cl)C[C@@H]1n1nc(CC(=O)O)c2ccc(F)cc21 [Compound I-53]	< 100	< 100	–
CCOc1ccc(S(=O)(=O)N2C[C@@H](C)[C@@H](n3nc(C(O)C(=O)O)c4ccccc43)C2)cc1 (single isomer, unassigned) [Compound I-306]	100 to 5000	100 to 5000	–
